Tests used:
Assay type in all cases: in vivo
[1] = system: Echinochloa crus-galli (L.) P. Beauv. var. formosensis Ohwi; assay: Test for Herbicidal Effect in Flooding Treatment (#1), ECHDG; details: flooding treatment at seeding, dose 2 kg/ha, visual observation on day 21
In short: (§1)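 Visual scores from 0 (<10% inhibition) to 5 (≥90% or complete withering) were taken 21 days after treatment of glasshouse-grown plants. Seeds were sown in soil flooded for 24 h beforehand, and compound was applied dropwise onto the surface at 2 kg/ha as an acetone solution diluted in water with Tween 80.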

Monochoria vaginalis = assay: Test for Herbicidal Effect in Flooding Treatment (#1), MONVA; details: flooding treatment at seeding, dose 2 kg/ha, visual observation on day 21
In short: as §1

Scirpus juncoides = assay: Test for Herbicidal Effect in Flooding Treatment (#1), SCIJU; details: flooding treatment at seeding, dose 2 kg/ha, visual observation on day 21
In short: as §1

Cyperus microiria = assay: Test for Herbicidal Effect in Flooding Treatment (#1), CYMIC; details: flooding treatment at seeding, dose 2 kg/ha, visual observation on day 21
In short: as §1

[2] = system: Echinochloa crus-galli (L.) P. Beauv. var. formosensis Ohwi; assay: Test for Herbicidal Effect in Flooding Treatment (#2), ECHDG at 2-2.5 leaf stage; details: for ECHDG (2-2.5L) #2 herbicidal effect (growth inhibition grade): flooding treatment at 2-2.5 leaf stage, dose 0.2 kg/ha, visual observation on day 21
In short: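 Flooded muddy soil was seeded with the weed, and at 2–2.5 leaf stage compound in acetone/Tween 80 water was dropped on the water surface at 0.2 kg/ha. Plants were kept in a glasshouse and scored visually on day 21 from 0 (<10% growth inhibition) to 5 (≥90% or complete withering).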

Compound	ECHDG #1 herbicidal effect (growth inhibition grade) [1]	MONVA #1 herbicidal effect (growth inhibition grade) (Monochoria vaginalis)	SCIJU #1 herbicidal effect (growth inhibition grade) (Scirpus juncoides)	CYMIC #1 herbicidal effect (growth inhibition grade) (Cyperus microiria)	inhibition at 200 g/ha ([2]; Echinochloa crus-galli, 504 h, flooding treatment (#2), ECHDG at 2-2.5 leaf stage, dose of 0.2 kg/ha, day 21, visual observation, read-out: growth inhibition effect)	ECHDG (2-2.5L) #2 herbicidal effect (growth inhibition grade) [2]
CCOc1c(F)cc(F)cc1CS(=O)(=O)c1ncc(Cl)s1 [Compound 1C-21]	5 (Growth inhibition effect is equal to or greater than 90%, or complete withering is achieved)	5 (Growth inhibition effect is equal to or greater than 90%, or complete withering is achieved)	5 (Growth inhibition effect is equal to or greater than 90%, or complete withering is achieved)	5 (Growth inhibition effect is equal to or greater than 90%, or complete withering is achieved)	≥ 90%	5 (Growth inhibition effect is equal to or greater than 90%, or complete withering is achieved)
CCOc1cc(Cl)cc(CS(=O)(=O)c2ncc(Cl)s2)c1 [Compound 1C-78]	5 (Growth inhibition effect is equal to or greater than 90%, or complete withering is achieved)	5 (Growth inhibition effect is equal to or greater than 90%, or complete withering is achieved)	5 (Growth inhibition effect is equal to or greater than 90%, or complete withering is achieved)	5 (Growth inhibition effect is equal to or greater than 90%, or complete withering is achieved)		5 (Growth inhibition effect is equal to or greater than 90%, or complete withering is achieved)
CCOc1ccc(CS(=O)(=O)c2ncc(Cl)s2)c(C(F)(F)F)c1 [Compound 1C-94]	5 (Growth inhibition effect is equal to or greater than 90%, or complete withering is achieved)	5 (Growth inhibition effect is equal to or greater than 90%, or complete withering is achieved)	5 (Growth inhibition effect is equal to or greater than 90%, or complete withering is achieved)	5 (Growth inhibition effect is equal to or greater than 90%, or complete withering is achieved)		5 (Growth inhibition effect is equal to or greater than 90%, or complete withering is achieved)
COc1ccccc1CS(=O)(=O)c1ncc(Cl)s1 [Compound 1C-2]	5 (Growth inhibition effect is equal to or greater than 90%, or complete withering is achieved)	5 (Growth inhibition effect is equal to or greater than 90%, or complete withering is achieved)	5 (Growth inhibition effect is equal to or greater than 90%, or complete withering is achieved)	5 (Growth inhibition effect is equal to or greater than 90%, or complete withering is achieved)		5 (Growth inhibition effect is equal to or greater than 90%, or complete withering is achieved)
CCOc1cc(C)c(Cl)c(C)c1CS(=O)(=O)c1ncc(Cl)s1 [Compound 1C-35]	5 (Growth inhibition effect is equal to or greater than 90%, or complete withering is achieved)	5 (Growth inhibition effect is equal to or greater than 90%, or complete withering is achieved)	5 (Growth inhibition effect is equal to or greater than 90%, or complete withering is achieved)	5 (Growth inhibition effect is equal to or greater than 90%, or complete withering is achieved)		5 (Growth inhibition effect is equal to or greater than 90%, or complete withering is achieved)
COc1cccc(F)c1CS(=O)(=O)c1ncc(Cl)s1 [Compound 1C-5]	5 (Growth inhibition effect is equal to or greater than 90%, or complete withering is achieved)	5 (Growth inhibition effect is equal to or greater than 90%, or complete withering is achieved)	5 (Growth inhibition effect is equal to or greater than 90%, or complete withering is achieved)	5 (Growth inhibition effect is equal to or greater than 90%, or complete withering is achieved)		5 (Growth inhibition effect is equal to or greater than 90%, or complete withering is achieved)
CCOc1ccc(CS(=O)(=O)c2ncc(Cl)s2)c(Cl)c1Cl [Compound 1C-100]	5 (Growth inhibition effect is equal to or greater than 90%, or complete withering is achieved)	5 (Growth inhibition effect is equal to or greater than 90%, or complete withering is achieved)	5 (Growth inhibition effect is equal to or greater than 90%, or complete withering is achieved)	5 (Growth inhibition effect is equal to or greater than 90%, or complete withering is achieved)		5 (Growth inhibition effect is equal to or greater than 90%, or complete withering is achieved)
CCOc1c(Cl)cc(Cl)cc1CS(=O)(=O)c1ncc(Cl)s1 [Compound 1C-23]	5 (Growth inhibition effect is equal to or greater than 90%, or complete withering is achieved)	5 (Growth inhibition effect is equal to or greater than 90%, or complete withering is achieved)	5 (Growth inhibition effect is equal to or greater than 90%, or complete withering is achieved)	5 (Growth inhibition effect is equal to or greater than 90%, or complete withering is achieved)		3 (Growth inhibition effect equal to or greater than 50%, and less than 70%)
O=S(=O)(Cc1cc(Br)ccc1OC(F)F)c1ncc(Cl)s1 [Compound 1C-40]	5 (Growth inhibition effect is equal to or greater than 90%, or complete withering is achieved)	5 (Growth inhibition effect is equal to or greater than 90%, or complete withering is achieved)	5 (Growth inhibition effect is equal to or greater than 90%, or complete withering is achieved)	5 (Growth inhibition effect is equal to or greater than 90%, or complete withering is achieved)		5 (Growth inhibition effect is equal to or greater than 90%, or complete withering is achieved)
COc1cc(Cl)c(CS(=O)(=O)c2ncc(Cl)s2)c(Cl)c1 [Compound 1C-91]	5 (Growth inhibition effect is equal to or greater than 90%, or complete withering is achieved)	5 (Growth inhibition effect is equal to or greater than 90%, or complete withering is achieved)	5 (Growth inhibition effect is equal to or greater than 90%, or complete withering is achieved)	5 (Growth inhibition effect is equal to or greater than 90%, or complete withering is achieved)		5 (Growth inhibition effect is equal to or greater than 90%, or complete withering is achieved)
COCOc1cc(Cl)c(CS(=O)(=O)c2ncc(Cl)s2)c(Cl)c1 [Compound 1C-119]	5 (Growth inhibition effect is equal to or greater than 90%, or complete withering is achieved)	5 (Growth inhibition effect is equal to or greater than 90%, or complete withering is achieved)	5 (Growth inhibition effect is equal to or greater than 90%, or complete withering is achieved)	5 (Growth inhibition effect is equal to or greater than 90%, or complete withering is achieved)		4 (Growth inhibition effect is equal to or greater than 70%, and less than 90%)
CCOc1cc(F)cc(F)c1CS(=O)(=O)c1ncc(Cl)s1 [Compound 1C-31]	5 (Growth inhibition effect is equal to or greater than 90%, or complete withering is achieved)	5 (Growth inhibition effect is equal to or greater than 90%, or complete withering is achieved)	5 (Growth inhibition effect is equal to or greater than 90%, or complete withering is achieved)	5 (Growth inhibition effect is equal to or greater than 90%, or complete withering is achieved)		5 (Growth inhibition effect is equal to or greater than 90%, or complete withering is achieved)
O=S(=O)(Cc1cc(Cl)ccc1OC(F)F)c1ncc(Cl)s1 [Compound 1C-39]	5 (Growth inhibition effect is equal to or greater than 90%, or complete withering is achieved)	5 (Growth inhibition effect is equal to or greater than 90%, or complete withering is achieved)	5 (Growth inhibition effect is equal to or greater than 90%, or complete withering is achieved)	5 (Growth inhibition effect is equal to or greater than 90%, or complete withering is achieved)		5 (Growth inhibition effect is equal to or greater than 90%, or complete withering is achieved)
